Literature values, collected in US20180280562A1, “Fibrous Structures Comprising Sensates” (The Procter & Gamble Company, priority 2017, published 2018).

Conditions: concentration where the cooling effect could be clearly recognized

SMILES: CC(C)[C@@H]1CC[C@@H](C)C[C@@H]1O [1-neomenthol]
- cooling threshold: about 3,000 ppb

SMILES: CC(C)[C@@H]1CC[C@@H](C)C[C@H]1O [L-menthol]
- cooling threshold: about 800 ppb

SMILES: CC(C)[C@@H]1CC[C@@H](C)C[C@@H]1O [d-neomenthol]
- cooling threshold: about 25,000 ppb
